Eleven compounds from ChEMBL document CHEMBL6182941, “Prodrugs Targeting Prostate-Specific Membrane Antigen against Prostate Cancer” (J Med Chem, 2025) can be followed below.

Structures are written as SMILES.

In series [1] the test system is CWR22R. Description: Cytotoxicity against human 22Rv1 cells assessed as reduction in cell viability incubated for 48 hrs by MTT assay. The note with it: 22Rv1, 48 h. The class given is functional, cell-based.
A short description of series [2]: Antiproliferative activity against human PC3-PIP cells assessed as reduction in cell viability incubated for 72 hrs by XTT assay.
In series [3] the target is Cathepsin B (Homo sapiens, UniProt P07858). Description: Inhibition of cathepsin B (unknown origin).
The nature of series [4]: Antitumor activity against human PC3-PIP cells xenografted in […] assessed as reduction in tumor volume at 80 mg/kg, IP. The class given is functional, PC3-PIP cell. (In general: In xenograft studies the graft and the host belong to different species.)
The subject of series [5] is LNCaP. Description: Cytotoxicity against human LNCaP cells assessed as reduction in cell viability incubated for 72 hrs by MTT assay. A general note: Tetrazolium dyes change colour on reduction, which living cells bring about.
Series [6] relates to DU-145. Description: Cytotoxicity against human DU-145 cells assessed as reduction in cell viability incubated for 72 hrs by MTT assay. The settings on record: DU-145, 72 h.
Series [7] addresses T1, Glutamate carboxypeptidase 2 (Homo sapiens, UniProt Q04609). As to the kind of experiment: Inhibition of human recombinant PSMA.
Series [8] in a line: Cytotoxicity against human PC3-PIP cells assessed as reduction in cell viability incubated for 72 hrs by CCK-8 assay.
The nature of series [9]: Cytotoxicity against human PC-3 flu cells assessed as reduction in cell viability incubated for 72 hrs by CCK-8 assay.
The nature of series [10]: Cytotoxicity against human PC3-PIP cells. The note with it: PC3-PIP cell.
A short description of series [11]: Cytotoxicity against human PC-3 flu cells.
Series [12] concerns the target N-acetylated-alpha-linked acidic dipeptidase 2 (Homo sapiens, UniProt Q9Y3Q0). As to the kind of experiment: Binding affinity to NAALAD-2 (unknown origin) assessed as inhibition constant.
Series [13] can be described thus: Half life in BALB/c mouse at 67 mg/kg by LC-MS/MS analysis. The format is ADME, organism-based. The note with it: in vivo.
The test system of series [14] is LNCaP. As to the kind of experiment: Cytotoxicity against human LNCaP cells assessed as cell death measured for 24 hrs. The class given is functional, cell-based.
For series [15], the system named is A549. As to the kind of experiment: Cytotoxicity against human A549 cells assessed as reduction in cell growth. The class given is functional, cell-based.
In series [16] the test system is KB. As to the kind of experiment: Cytotoxicity against human KB cells assessed as reduction in cell growth. The format is functional, cell-based.
Series [17] addresses T1, Glutamate carboxypeptidase 2. Description: Binding affinity to human recombinant PSMA in LNCaP cells assessed as inhibition constant. The format is cell-based.
Series [18] deals with T2, N-acetylaspartylglutamate synthase A (Homo sapiens, UniProt Q8IXN7).
T2 sequence (Q8IXN7 whole entry): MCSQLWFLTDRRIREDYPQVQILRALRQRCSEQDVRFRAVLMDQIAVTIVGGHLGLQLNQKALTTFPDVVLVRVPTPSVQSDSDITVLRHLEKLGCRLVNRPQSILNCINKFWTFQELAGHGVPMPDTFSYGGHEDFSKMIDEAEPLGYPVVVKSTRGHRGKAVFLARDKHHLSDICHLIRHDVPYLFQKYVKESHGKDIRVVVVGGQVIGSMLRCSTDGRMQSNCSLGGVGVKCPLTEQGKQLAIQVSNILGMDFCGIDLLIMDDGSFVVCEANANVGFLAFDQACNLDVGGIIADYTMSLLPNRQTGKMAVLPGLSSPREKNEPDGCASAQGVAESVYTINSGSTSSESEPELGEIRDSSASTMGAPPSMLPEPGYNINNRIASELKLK
Description: Binding affinity to NAAG synthetase A (unknown origin) assessed as inhibition constant.

Series [19] is described as follows: Cytotoxicity against human HK-2 cells assessed as reduction in cell viability incubated for 48 hrs by MTT assay. The format is toxicity, cell-based.

T1 sequence (Q04609 whole entry): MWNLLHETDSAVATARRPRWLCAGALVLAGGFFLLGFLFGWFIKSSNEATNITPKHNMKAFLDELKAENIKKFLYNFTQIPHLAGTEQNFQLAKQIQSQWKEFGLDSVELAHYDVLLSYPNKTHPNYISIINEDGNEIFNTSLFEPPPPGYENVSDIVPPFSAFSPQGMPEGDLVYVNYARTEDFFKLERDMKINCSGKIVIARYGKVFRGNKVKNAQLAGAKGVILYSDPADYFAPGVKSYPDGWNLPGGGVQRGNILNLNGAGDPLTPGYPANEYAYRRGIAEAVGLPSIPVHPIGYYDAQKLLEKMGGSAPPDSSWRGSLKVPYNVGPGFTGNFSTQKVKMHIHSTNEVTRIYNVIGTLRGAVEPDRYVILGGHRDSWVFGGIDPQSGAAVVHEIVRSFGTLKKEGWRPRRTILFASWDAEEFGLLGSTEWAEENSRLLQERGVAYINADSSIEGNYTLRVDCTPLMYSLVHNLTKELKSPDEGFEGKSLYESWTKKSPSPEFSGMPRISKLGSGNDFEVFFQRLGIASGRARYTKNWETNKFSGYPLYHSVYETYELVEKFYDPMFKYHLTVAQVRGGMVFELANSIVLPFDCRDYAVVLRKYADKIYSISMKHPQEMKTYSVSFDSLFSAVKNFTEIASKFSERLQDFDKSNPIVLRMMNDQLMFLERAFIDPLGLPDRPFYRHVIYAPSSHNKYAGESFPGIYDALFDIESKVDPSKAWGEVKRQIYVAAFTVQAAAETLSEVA
N-acetylated-alpha-linked acidic dipeptidase 2, sequence (Q9Y3Q0 whole entry): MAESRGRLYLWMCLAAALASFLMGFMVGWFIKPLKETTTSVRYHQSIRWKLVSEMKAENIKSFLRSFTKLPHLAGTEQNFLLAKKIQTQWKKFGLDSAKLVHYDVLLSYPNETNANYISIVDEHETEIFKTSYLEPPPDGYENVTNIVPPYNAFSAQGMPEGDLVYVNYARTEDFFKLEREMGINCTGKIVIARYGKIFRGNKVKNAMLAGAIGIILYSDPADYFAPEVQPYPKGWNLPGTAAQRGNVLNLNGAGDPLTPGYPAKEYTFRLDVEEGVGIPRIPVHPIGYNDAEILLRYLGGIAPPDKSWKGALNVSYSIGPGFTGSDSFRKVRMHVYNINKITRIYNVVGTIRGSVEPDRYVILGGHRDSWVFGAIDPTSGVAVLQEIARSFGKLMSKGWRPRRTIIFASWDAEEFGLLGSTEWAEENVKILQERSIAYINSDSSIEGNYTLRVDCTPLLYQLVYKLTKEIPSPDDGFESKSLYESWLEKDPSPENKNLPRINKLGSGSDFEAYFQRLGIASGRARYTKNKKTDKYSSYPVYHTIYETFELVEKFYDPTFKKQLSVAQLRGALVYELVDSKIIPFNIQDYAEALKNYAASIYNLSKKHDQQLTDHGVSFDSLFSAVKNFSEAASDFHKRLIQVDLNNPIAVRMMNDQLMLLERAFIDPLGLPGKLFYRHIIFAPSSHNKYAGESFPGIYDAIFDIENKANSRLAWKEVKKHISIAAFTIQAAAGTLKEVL

Take `CC(=O)O[C@H]1C(=O)[C@@]2(C)[C@H]([C@H](OC(=O)c3ccccc3)[C@]3(O)C[C@H](OC(=O)[C@H](O)[C@@H](NC(=O)c4ccccc4)c4ccccc4)C(C)=C1C3(C)C)[C@]1(OC(C)=O)CO[C@@H]1C[C@@H]2O` [PACLITAXEL]: the IC50 in series [1] amounted to 563 nM.
Turning to `CC[C@@H](C)[C@H]([C@H](CC(=O)N1CCC[C@@H]1[C@@H](OC)[C@H](C)C(=O)N[C@@H](C)[C@H](O)c1ccccc1)OC)N(C)C(=O)[C@@H](NC(=O)[C@H](C(C)C)N(C)C(=O)OCc1ccc(NC(=O)[C@@H](CCCNC(N)=O)NC(=O)[C@H](NC(=O)CCCCCCC(=O)NCCCC[C@@H](NC(=O)N[C@H](CCC(=O)O)C(=O)O)C(=O)O)C(C)C)cc1)C(C)C`, the IC50 is 3.9 nM in [2] and roughly 0.04 nM in series [3]. Further, in [4], the Activity amounted to 62.4 mm3.
With `CC[C@H](C)[C@@H]([C@@H](CC(=O)N1CCC[C@H]1[C@H](OC)[C@@H](C)C(=O)N[C@H](C)[C@@H](O)c1ccccc1)OC)N(C)C(=O)[C@@H](NC(=O)[C@H](C(C)C)N(C)C(=O)OCc1ccc(NC(=O)[C@H](CCCNC(N)=O)NC(=O)[C@@H](NC(=O)CCCCCN2C(=O)CC(SCCC(=O)NC(Cc3cn(CCOCCNCCCCCCOc4cc(OCCCc5c(C)n[nH]c5C)cc(C(=O)O)c4)nn3)C(=O)NCCCCCC(=O)NCCCC[C@H](NC(=O)N[C@@H](CCC(=O)O)C(=O)O)C(=O)O)C2=O)C(C)C)cc1)C(C)C` (stereo not given in full), the IC50 in [5] was 5.4 nM; in [6] it was 313 nM.
`CSC[C@@H](NC(=O)N[C@H](CCC(=O)O)C(=O)O)C(=O)O`: the half-inhibitory concentration (IC50) in series [7] was 15.3 nM.
As to `CC[C@@H](C)[C@H]([C@H](CC(=O)N1CCC[C@@H]1[C@@H](OC)[C@H](C)C(=O)N[C@@H](C)[C@H](O)c1ccccc1)OC)N(C)C(=O)[C@H](NC(=O)[C@@H](C(C)C)N(C)C(=O)OCc1ccc(NC(=O)[C@@H](CCCNC(N)=O)NC(=O)[C@@H](NC(=O)CCCCCN2C(=O)CC(SC[C@H](NC(=O)[C@H](CCC(=O)O)NC(=O)[C@H](CCC(=O)O)NC(=O)[C@H](CCC(=O)O)NC(=O)CCCCCNC(=O)[C@H]3CC[C@H](CNC(=O)CC[C@@H](NC(=O)N[C@H](CCC(=O)O)C(=O)O)C(=O)O)CC3)C(=O)NCCCCCC(=O)N[C@@H](CCCCNC(=O)CCCCC[N+]3=C(/C=C/C=C/C=C4/N(C)c5ccc6ccccc6c5C4(C)C)C(C)(C)c4c3ccc3ccccc43)C(=O)O)C2=O)C(C)C)cc1)C(C)C` (stereo not given in full), the 50% inhibitory concentration (IC50) in [8] turned out to be 0.84 nM; in series [9] it was 17 nM; in series [10], 4.34 nM; in [11] it was 4.64 nM.
For the compound `O=C(O)CCC(CP(=O)(O)O)C(=O)O` (stereo not given), in series [12], the Ki is roughly 0.275 nM.
`C/C=C(/C)C(=O)O[C@H]1C(C)=C2[C@H]([C@@H]1OC(=O)CCCCCCC)[C@@](C)(OC(C)=O)C[C@H](OC(=O)CCCCCCCCCCCNC(=O)C[C@H](N)C(=O)N[C@@H](CCC(=O)N[C@@H](CCC(=O)N[C@@H](CCC(=O)N[C@@H](CCC(=O)O)C(=O)O)C(=O)O)C(=O)O)C(=O)O)[C@@]1(O)[C@H]2OC(=O)[C@@]1(C)O` [MIPSAGARGIN] gave a half-life in series [13] of 4.9 h.
Regarding `CCCC(=O)OCN(C(=O)[C@@H](NC(=O)[C@H]1CCCCN1C)[C@@H](C)CC)[C@H](C[C@@H](OC(C)=O)c1nc(C(=O)N[C@@H](Cc2ccc(O)cc2)C[C@H](C)C(=O)NNC(=O)OCCSSC[C@H](NC(=O)[C@H](CC(=O)O)NC(=O)[C@H](CC(=O)O)NC(=O)Cc2ccc(CNC(=O)NCCCC[C@@H](NC(=O)N[C@H](CCC(=O)O)C(=O)O)C(=O)O)cc2)C(=O)O)cs1)C(C)C`, the IC50 in series [14] was roughly 13 nM; in [15], 0.9 nM; in [16], 0.6 nM.
As to `NCCCC[C@H](NC(=O)N[C@@H](CCC(=O)O)C(=O)O)C(=O)O`, the inhibition constant Ki in series [17] was determined as 12 nM.
Regarding `O=C(O)CC[C@H](NC(=O)N[C@@H](CCC(=O)O)C(=O)O)C(=O)O`, the Ki in [18] is 8 nM.
With `CC(=O)O[C@H]1C(=O)[C@@]2(C)[C@H]([C@H](OC(=O)c3ccccc3)[C@]3(O)C[C@H](OC(=O)[C@H](OC(=O)CSSCC(=O)NCCNC(=O)CC[C@@H](NC(=O)N[C@H](CCC(=O)O)C(=O)O)C(=O)O)[C@@H](NC(=O)c4ccccc4)c4ccccc4)C(C)=C1C3(C)C)[C@]1(OC(C)=O)CO[C@@H]1C[C@@H]2O`, the IC50 in series [1] (read-out: IC50) turned out to be 121 nM. Besides, the IC50 at 48 h in series [19] worked out at 14.2 nM.

Usually IC50 stands for the concentration that gives 50% inhibition. The Ki is the equilibrium dissociation constant of an inhibitor or competing ligand from its target. The term half-life denotes the time needed for the level to fall by half in the phase considered.
